{"source": "patent US10047151B2", "about": "“Methods for the treatment of cancer and inflammatory diseases using cereblon as a predictor” (Celgene Corporation, priority 2011, dated 2018)", "key": {"NF-κB": {"system": "NF-κB", "assay": "NF-κB-driven luciferase reporter gene assay in DLBCL cells", "assay_type": "cell-based", "conditions": "OCI-Ly10 and U2932; 2 day drug treatment", "experimental": "For the NF-κB-driven luciferase reporter gene assay, cells were transfected with the pGL4.32 [luc2P/NF-κB-RE/Hygro] plasmid (Promega, Madison, Wis.) using Nucleofector kit V and program 013 according to the manufacturer's protocol (Amaxa Biosystems, Gaithersburg, Md.). After 24 hours of transfection, cells were treated with test agents for 2 days and lysates were prepared using the Dual-Glo® Luciferase Assay System (Promega). Luciferase activities of each sample were measured using a TopCount NXT Microplate Scintillation and Luminescence Counter (Packard BioScience).\nTo knockdown IRF4, cells were transfected with Silencer® Select siRNA (small interfering RNA, Applied Biosystems) directed against IRF4, CRBN, or Silencer® Select Negative Control siRNAs at a final concentration of 0.2-1 μM using Nucleofector® Kit V for transfection. For IRF4 overexpression, cells were transfected with IRF4- or green fluorescent protein (GFP)-cytomegalovirus (CMV) expression plasmids (OriGene Technologies, Rockville, Md.) for 24 h using the Cell Line Nucleofector kit V as above-mentioned. After 24 hours of transfection, cells were treated with lenalidomide for 2 days before luciferase assay, RT-PCR gene expression analysis and Western blot. […]"}, "p21^WAF-1": {"system": "p21^WAF-1", "assay": "p21WAF-1 mRNA and protein levels in U266B1 cells", "assay_type": "cell-based", "conditions": "U266B1, control mock and negative control siRNA-transfected cells; pomalidomide 1 μM, lenalidomide 10 μM", "experimental": "To further investigate the effects of CRBN on the cell cycle arrest induced by drugs we used RT-PCR and Western blot analysis to measure the levels of key cell cycle and apoptotic regulators. U266B1 cells were transfected with mock, negative control siRNA, CRBN-siRNA-7 and CRBN-siRNA-11 for 24, 48, 72 and 96 h (FIG. 3A). Cells were treated 24 h after transfection with DMSO (0.1%), pomalidomide (1 μM) and lenalidomide (10 μM) for 1, 2, 3 days and the effect on mRNA and protein levels of the cyclin-dependent kinase (CDK) inhibitor p21^WAF-1 were evaluated. It has been shown that lenalidomide- and pomalidomide-induced cell cycle arrest is dependent on up-regulation of p21^WAF-1 in […]. […] However, knockdown of CRBN prevents the induction of p21^WAF-1 indicating the successful abrogation of G1 arrest and renewal of S phase progression (FIGS. 3C & 3D)."}}, "data": [{"smiles": "Nc1cccc2c1CN(C1CCC(=O)NC1=O)C2=O", "note": "(centres unmarked) [lenalidomide, 3-(4-amino-1-oxo-1,3-dihydro-isoindol-2-yl)-piperidine-2,6-dione]", "values": [{"measurement": "inhibition of transcriptional activity of NF-κB", "setting": "NF-κB", "value": "32-56%"}, {"measurement": "p21 level", "setting": "p21^WAF-1", "value": "up-regulated"}]}]}
